Data set [1] deals with L₁-Larven von Lucilia sericata. Put plainly: B-3 action against L1 larvae in larval culture medium. The format is in vivo. Particulars: 96 h, reduced concentration of 100 ppm, after 4 days, read-out: Wirkung (Mortalitätsrate). As to the method: B-3. Wirkung gegen L₁-Larven von Lucilia sericata
1 ml einer wässrigen Suspension der zu prüfenden Aktivsubstanz werden so mit 3 ml eines speziellen Larvenzuchtmediums bei ca. 50°C vermischt, dass ein Homogenisat von wahlweise 250 ppm oder […] Wirkstoffgehalt entsteht. In jede Reagenzglas-Probe werden ca. 30 Lucilia-Larven (L₁) eingesetzt. Nach 4 Tagen wird die Mortalitätsrate bestimmt. Die Verbindungen aus den Herstellungsbeispielen zeigen bei 250 ppm eine Wirkung von 100 %, wobei die Verbindungen aus den Herstellungsbeispiele, wie z.B. E8, E6, E2, E14, E22, E28, E26, E30, E32, E34, E36 und E38, diese Wirkung auch noch bei der reduzierten Wirkstoffkonzentration von 100 ppm erzielten.

Data set [2] concerns Meloidogyne incognita. Put plainly: B-8 soil nematicidal action on tomato plants, root-knot index. The data set is classed as in vivo. The conditions noted are these: 0,002 % active substance relative to soil volume, after 4 weeks; result in words. As to the method: B-8. Bodennematizide Wirkung gegen Meloidogyne incognita
Eier von Meloidogyne incognita werden in Sand eingemischt. Dieses Gemisch wird dann in 200 ml fassende Tontöpfe eingebracht (5000 Eier pro Topf). Am gleichen Tag wird pro Topf eine 3 Wochen alte Tomatenpflanze gepflanzt und der formulierte Wirkstoffe mittels Druckapplikation in die Töpfe hineingegeben (0,002 % Aktivsubstanz bezogen auf das Bodenvolumen). Die eingetopften Pflanzen werden nun bei einer Temperatur von 26±1°C und einer relativen Luftfeuchtigkeit von 60 % in einem Gewächshaus aufgestellt. Nach Ablauf von 4 Wochen erfolgt eine Evaluierung durch Untersuchung der Pflanzen auf Wurzelgallbildung nach dem sogenannten Wurzelgall-Index ("Knot Index").

For data set [3], the system named is Spodoptera littoralis. Put plainly: B-1 insecticidal stomach-poison action on sprayed cotton plants. The data set is classed as in vivo. The conditions noted are these: 12,5 ppm active ingredient, after 24 hours, L1 larvae on cotton plants. As to the method:
B-1. Insektizide Frassgift-Wirkung bei Spodoptera littoralis
Eingetopfe Baumwollpflanzen im 5-Blatt-Stadium werden mit einer acetonisch/wässrigen Versuchslösung besprüht, die 3, 12,5 oder 50 ppm der zu prüfenden Verbindung enthält.
Nach dem Antrocknen des Belags werden die Pflanzen mit ca. 30 Larven (L₁-Stadium) von Spodoptera littoralis besetzt. Pro Versuchsverbindung und pro Test-Spezies verwendet man zwei Pflanzen. Der Versuch wird bei ca. 24°C und 60 % relativer Luftfeuchtigkeit durchgeführt Auswertungen und Zwischenauswertungen auf moribunde Tiere, Wachstum und Larven und Frasschäden erfolgen nach 24 Stunden, 48 Stunden und 72 Stunden.

Data set [4] deals with Haemonchus concortus und Trichostrongylus colubriformis. Put plainly: B-5 test on nematode-infected sheep, worm egg count in faeces. The format is in vivo, Schafen. Particulars: single dose 0,5 mg/kg by stomach tube or intraruminal injection. Here is the method: B-5. Versuch an mit Nematoden (Haemonchus concortus und Trichostrongylus colubriformis) infizierten Schafen
Der Wirkstoff wird als Suspension formuliert mit einer Magensonde oder durch Injektion in den Pansen eines Schafes gegeben, das mit Haemonchus concortus und Trychostrongylus colubriformis künstlich infiziert worden ist. Pro Dosis werden 1 bis 3 Tiere verwendet. Jedes Schaf wird nur einmal mit einer einzigen Dosis behandelt, und zwar wahlweise mit 1 mg oder 0,5 mg/kg Körpergewicht. Die Evaluierung erfolgt durch Vergleich der Anzahl der vor und nach Behandlung im Kot der Schafe ausgeschiedenen Wurmeier.
Gleichzeitig und gleichartig infizierte aber unbehandelte Schafe dienen als Kontrolle. […] Verbindungen aus den Herstellungsbeispielen, wie. z.B. E4, E8, E14, E18, E30 bis E32, E 34 und E36, bewirkten dies auch noch bei 0,5 mg/kg.

In data set [5] the test system is Aedes aegypti. Put plainly: B-7 larvicidal action in water. Particulars: 3,3 ppm, after one day. The format is in vivo. As to the method:
B-7. Larvizidwirkung gegen Aedes aegypti
Auf die Oberfläche von 150 ml Wasser, das sich in einem Behälter befindet, wird soviel einer 0,1 %igen acetonischen Lösung des Wirkstoffes pipettiert, dass Konzentrationen von wahlweise 10 ppm, 3,3 ppm und 1,6 ppm erhalten werden. Nach Verdunsten des Acetons wird der Behälter mit ca. 30-40 3 Tage alten Aedes-Larven beschickt. Nach 1, 2 und 5 Tagen wird die Mortalität geprüft.

Data set [6] deals with Dermanyssus gallinae. Put plainly: B-4 miticidal action, wetting test in glass container. Particulars: 72 h, observed for three days, read-out: Wirkung (Mortalität). The data set is classed as in vivo. As to the method:
B-4. Milbizide Wirkung gegen Dermanyssus gallinae
2 bis 3 ml einer Testlösung (100, 10, 1 und 0,1 ppm Aktivsubstanz) werden in einem nach oben offenen Glasbehälter gegeben und ca. 200 Milben in unterschiedlichen Entwicklungstadien in diesen Behälter eingesetzt. Der Glasbehälter wird mit einem Wattebausch verschlossen und 10 Minuten gleichmässig, bis zur vollständigen Benetzung der Milben geschüttelt. Danach wird der Behälter umgekehrt hingestellt, bis die überschüssige Testlösung von der Watte aufgesogen ist. Der Behälter wird erneut gekehrt und die behandelten Zecken zur Evaluierung der Wirksamkeit der Testsubstanzen drei Tage unter Laborbedingungen beobachtet, wobei die Mortalität als Massstab für Wirksamkeit herangezogen wird.

Data set [7] relates to Aphis craccivora. Put plainly: B-6 contact action on infested pea seedlings. The format is in vivo. Particulars: for mortality at 25 ppm: Aphis craccivora, 72 h, read-out: Abtötung. An excerpt: B-6. Kontaktwirkung auf Aphis craccivora
Erbsenkeimlinge, die mit sämtlichen Entwicklungsstadien der Laus infiziert sind, werden mit einer aus einem Emulsionskonzentrat hergestellten Wirkstofflösung besprüht, die wahlweise 50 ppm, 25 ppm oder 12,5 ppm Wirkstoff enthält. Nach 3 Tagen wird auf mehr als 80 % tote bzw. abgefallene Blattläuse ausgewertet. Nur bei dieser Wirkungshöhe wird ein Präparat als wirksam eingestuft.

Data set [8] concerns OP-sensible Tetranychus urticae. Put plainly: B-2 action against plant-damaging acarids on bean plants. The conditions noted are these: 1,6 ppm active ingredient, evaluation after seven days. The data set is classed as in vivo. An excerpt:
B-2. Wirkung gegen pflanzenschädigende Akariden OP-sensible Tetranychus urticae
Die Primärblätter von Bohnenpflanzen (Phaseolus vulgaris) werden 16 Stunden vor dem Versuch mit einem durch T. urticae infestierten, aus einer Massenzucht stammenden Blattstück belegt. Die so mit allen Milben-Stadien infestierten Pflanzen werden nach Entfernung des Blattstücks mit einer Versuchslösung bis zur Tropfnässe besprüht, die wahlweise 0,4 ppm oder 1,6 ppm der zu prüfenden Verbindung enthält. Die Temperatur in der Gewächshauskabine beträgt ca. 25°C.
Nach sieben Tagen wird unter dem Binokular auf Prozentsatz mobiler Stadien (Adulte und Nymphen) und auf vorhandene Eier ausgewertet.

Experimental findings from patent EP0239528A1, “13-Beta-carbamoyloxy-milbemicyne derivatives for fighting harmful animal and plant parasites” (CIBA-GEIGY AG, priority 1986, dated 1987) are described below.

Where two headings read alike, the source gives them in different places.

Regarding `CCC1OC2(CCC1C)CC1CC(CC=C(C)C(OC(=O)NC)C(C)C=CC=C3COC4C(O)C(C)=CC(C(=O)O1)C34O)O2` (stereo not drawn) [Beispiel E2, 13β-N-Methyl-carbamoyloxy-milbemycin A₄], the mortality at 100 ppm in data set [1] amounted to 100%. Moreover, the “Wirksamkeit gegen Meloidogyne incognita (Reduktion der Wurzelgallbildung)” value (“Wirksamkeit gegen Meloidogyne incognita” for short) in data set [2] is “besonders aktiv”.
With `CC[C@H]1O[C@]2(CC[C@@H]1C)C[C@@H]1C[C@@H](C/C=C(\C)[C@H](OC(=O)NC(C)(C)C)[C@@H](C)/C=C/C=C3\CO[C@@H]4[C@H](O)C(C)=C[C@@H](C(=O)O1)[C@]34O)O2` [Beispiel E4, 13β-N-tert.-Butyl-carbamoyloxy-milbemycin A₄], the Abtötung result in data set [3] was “vollständige Abtötung”. Further, the “Nematodenbefall (Reduktion der Wurmeier im Kot)” value (“Nematodenbefall” for short) in data set [4] is reported as “komplette Reduktion der Wurmeier im Kot”. In addition, the “Abtötung sämtlicher Larven” value in data set [5] is listed as “vollständige Abtötung”.
In the case of `CCC1OC2(CCC1C)CC1CC(CC=C(C)C(OC(=O)Nc3ccccc3)C(C)C=CC=C3COC4C(O)C(C)=CC(C(=O)O1)C34O)O2` (stereo not drawn) [Beispiel E6, 13β-N-Phenyl-carbamoyloxy-milbemycin A₄], the Abtötung entry in data set [3] is listed as “vollständige Abtötung”. The mortality at 100 ppm in data set [1] worked out at 100%.
Take `CCC1OC2(CCC1C)CC1CC(CC=C(C)C(OC(=O)N(C(C)C)C(C)C)C(C)C=CC=C3COC4C(O)C(C)=CC(C(=O)O1)C34O)O2` (stereo not drawn) [Beispiel E8, 13β-N,N-Diisopropyl-carbamoyloxy-milbemycin A₄]: the mortality at 100 ppm in data set [1] was found to be 100%. Further, the mortality at 10 ppm in data set [6] was found to be 100%. Besides, the “Nematodenbefall” value in data set [4] was “komplette Reduktion der Wurmeier im Kot”. In data set [7] (25 ppm, after 3 days), the mortality at 25 ppm amounted to 100%. Moreover, the “Abtötung sämtlicher Larven” value in data set [5] is recorded as “vollständige Abtötung”.
`CNC(=O)OC1C(C)=CCC2CC(CC3(CCC(C)C(C(C)C)O3)O2)OC(=O)C2C=C(C)C(O)C3OCC(=CC=CC1C)C23O` (stereo not drawn) [Beispiel E10, 13β-N-Methylcarbamoyloxy-milbemycin D]: the Abtötung entry in data set [3] was “vollständige Abtötung”. In data set [6], the mortality at 10 ppm amounted to 100%. Further, the mortality at 25 ppm in data set [7] was 100%. The “Wirksamkeit gegen Meloidogyne incognita” value in data set [2] is “besonders aktiv”.
For the compound `CCC1OC2(CCC1C)CC1CC(CC=C(C)C(OC(=O)NC3CCCCC3)C(C)C=CC=C3COC4C(O)C(C)=CC(C(=O)O1)C34O)O2` (stereo not drawn) [Beispiel E12, 13β-N-Cyclohexylcarbamoyloxy-milbemycin A₄], the Abtötung result is given as “vollständige Abtötung” in data set [3] and 100% in data set [7] (25 ppm, after 3 days).
With `CCC1OC2(CCC1C)CC1CC(CC=C(C)C(OC(=O)Nc3ccc(Br)cc3)C(C)C=CC=C3COC4C(O)C(C)=CC(C(=O)O1)C34O)O2` (stereo not drawn) [Beispiel E14, 13β-N-(4-Bromphenyl)carbamoyloxy-milbemycin A₄], in data set [3], the Abtötung result is on record as “vollständige Abtötung”. Moreover, the mortality at 100 ppm in data set [1] is 100%. Also, the “Nematodenbefall” value in data set [4] is “komplette Reduktion der Wurmeier im Kot”. In addition, the mortality at 25 ppm in data set [7] (25 ppm, after 3 days) amounted to 100%. Also, the “Abtötung sämtlicher Larven” value in data set [5] is “vollständige Abtötung”.
On to `CC[C@H]1O[C@]2(CC[C@@H]1C)C[C@@H]1C[C@@H](C/C=C(\C)[C@H](OC(=O)N(C)C)[C@@H](C)/C=C/C=C3\CO[C@@H]4[C@H](O)C(C)=C[C@@H](C(=O)O1)[C@]34O)O2` [Beispiel E16, 13β-N,N-Dimethyl-carbamoyloyx-milbemycin A₄], for which, in data set [3], the Abtötung result was “vollständige Abtötung”. The “Wirksamkeit gegen Meloidogyne incognita” value in data set [2] is recorded as “besonders aktiv”.
As for `CCNC(=O)O[C@H]1/C(C)=C/C[C@@H]2C[C@@H](C[C@]3(CC[C@H](C)[C@@H](CC)O3)O2)OC(=O)[C@@H]2C=C(C)[C@@H](O)[C@H]3OC/C(=C\C=C\[C@@H]1C)[C@]32O` [Beispiel E18, 13β-N-Ethyl-carbamoyloxy-milbemycin A₄], the “Nematodenbefall” value in data set [4] was “komplette Reduktion der Wurmeier im Kot”. In data set [2], the “Wirksamkeit gegen Meloidogyne incognita” value is “besonders aktiv”.
As for `CC[C@H]1O[C@]2(CC[C@@H]1C)C[C@@H]1C[C@@H](C/C=C(\C)[C@H](OC(=O)Nc3ccc([N+](=O)[O-])cc3)[C@@H](C)/C=C/C=C3\CO[C@@H]4[C@H](O)C(C)=C[C@@H](C(=O)O1)[C@]34O)O2` [Beispiel E20, 13β-N-(4-Nitrophenyl)-carbamoyloxy-milbemycin A₄], the Abtötung result in data set [8] is recorded as “vollständige Abtötung”. The “Abtötung sämtlicher Larven” value in data set [5] was “vollständige Abtötung”.
In the case of `CCC1OC2(CCC1C)CC1CC(CC=C(C)C(OC(=O)NC(C)C)C(C)C=CC=C3COC4C(O)C(C)=CC(C(=O)O1)C34O)O2` (stereo not drawn) [Beispiel E26, 13β-Isopropyl-carbamoyloxy-milbemycin A₄], the mortality at 100 ppm in data set [1] was 100%. Also, in data set [6], the mortality at 10 ppm is 100%.
Turning to `CCC1OC2(CCC1C)CC1CC(CC=C(C)C(OC(=O)NCc3ccccc3)C(C)C=CC=C3COC4C(O)C(C)=CC(C(=O)O1)C34O)O2` (stereo not drawn) [Beispiel E28, 13β-N-Benzyl-carbamoyloxy-milbemycin A₄], the mortality at 100 ppm in data set [1] worked out at 100%.
Same read-out and setting: the result for `CCC1OC2(CCC1C)CC1CC(CC=C(C)C(OC(=O)NC(C)c3ccccc3)C(C)C=CC=C3COC4C(O)C(C)=CC(C(=O)O1)C34O)O2` [Beispiel E30, 13β-N-((S)-1-Phenylethyl)-carbamoyloxy-milbemycin A₄] reads 100%.
Consider `CCC1OC2(CCC1C)CC1CC(CC=C(C)C(OC(=O)Nc3ccccc3Br)C(C)C=CC=C3COC4C(O)C(C)=CC(C(=O)O1)C34O)O2` (stereo not drawn) [Beispiel E34, 13β-N-(2-Bromphenyl)-carbamoyloxy-milbemycin A₄], for which the mortality at 100 ppm in data set [1] worked out at 100%. The “Nematodenbefall” value in data set [4] is listed as “komplette Reduktion der Wurmeier im Kot”.
The like results for `CCc1ccccc1NC(=O)OC1C(C)=CCC2CC(CC3(CCC(C)C(CC)O3)O2)OC(=O)C2C=C(C)C(O)C3OCC(=CC=CC1C)C23O` (stereo not drawn) [Beispiel E36, 13β-N-(2-Ethylphenyl)-carbamoyloxy-milbemycin A₄] were, in that order, 100% and “komplette Reduktion der Wurmeier im Kot”.
In the case of `CCC1OC2(CCC1C)CC1CC(CC=C(C)C(OC(=O)Nc3ccccc3[N+](=O)[O-])C(C)C=CC=C3COC4C(O)C(C)=CC(C(=O)O1)C34O)O2` (centres unmarked) [Beispiel E38], in data set [1], the mortality at 100 ppm is 100%.
